Test results published in patent publication US12484608B2, “Nutritional composition and infant formula for promoting de novo myelination” (SOCIETE DES PRODUITS NESTLE S.A., priority 2015, dated 2025).

How the values were obtained:
[1] = system: brain myelination; assay: Cross-sectional correlation of infant formula nutrient content with brain myelin content (mcDESPOT MRI, myelin water fraction); type: in vivo, human; conditions: formula-fed children up to 5 years
From the text: MRI (Magnetic Resonance Imaging): MRI brain scans of infants and children between 0 and 5 years were acquired using a white matter imaging technique. This technique provides a quantitative measure, the Myelin Water Fraction (MWF), which is a surrogate marker of myelin content in the brain. When mapped as a function of time across early childhood, myelination trajectories can be generated.
Each infant was scanned using the mcDESPOT (multicomponent Driven Equilibrium Single Pulse Observation of T1 and T2) white matter imaging technique Deoni et al. (Magn. Reson. Med. 2008, 60:1372-1387), which provides a quantitative measure of the myelin water fraction (MWF)—a measure of myelin content—at each point throughout the brain. All infants were scanned during natural (i.e. non-sedated) sleep using acoustically-muffled mcDESPOT imaging protocols. Total imaging times ranged from 19 minutes for the youngest toddlers to 24 minutes for the older 4 year-old children.
Following image alignment, non-brain signal removal, and correction for main and transmit magnetic field (B0 and B1) inhomogeneities, a three-pool signal model (comprising the myelin-associated water; intra-extra axonal water; and a non-exchanging free-water pool) was fit to the mcDESPOT data to derive voxel-wise MWF maps.
Each child's map was then non-linearly aligned to a study specific template. White matter masks, corresponding to 5 bilateral regions (frontal, temporal, occipital, parietal, and cerebellar WM) as well as the body, genu, and splenium of the corpus callosum were created from common databases, registered to the common template, and superimposed onto each child's MWF map. Mean values for each region were then determined for each child and used for subsequent developmental analysis and trajectory modeling.
From the cohort described above, children up to 5 years of age that were fed different infant formulas during infancy were included in a large correlation analysis to examine the relationship between formula nutrient composition and brain myelination. The 5 most frequently used formulas in that cohort were analyzed for their nutritional composition. A single general linear model (GLM) was constructed that modeled all quantified nutrients and child age.
Spearman rank correlations were then calculated between the nutrient content and myelin content value (adjusted for child age) at each image voxel, or point within the brain. Significance was defined as p<0.05 corrected for type 1 error using a cluster based correction approach. An association or trend was defined as p<0.15. […] To reduce the number of nutritional components in the model, we examined the inter-nutritional correlation. Using a conservative threshold of 0.9, we excluded nutritional components that were highly correlated with each other across the various formulas.

[2] = system: neural progenitor cell (NPCs); assay: Neurosphere counts in 96-well plates; type: cell-based, mouse; conditions: control 103
Description: Generation of neural progenitor cell (NPCs) libraries:
dissociation of E14 mouse neocortex
Plating Cells in 96-Well Plates for Neurosphere Counts and Diameters Only
3-4 mLs of cells were taken out of the tilted plate and add to a 15 ml conical. Some of the remaining media was used to rinse down the plate. All remaining media was drawn up and put into a 15 ml conical tube, and Spun at 130G for 5 min. All media was removed. The cells were gently resuspended in 5 mls of warm PBS, spun again. PBS was then removed and the cells were then gently resuspended in 500 μl of Accutase(Corning™ Accutase™ Cell Detachment Solution, #25058CI). The cells were then Pipetted gently with a 1000p tip to break up pellet, and then they were placed in a shaking water bath for 5-10 minutes, after which time they were swirled by hand frequently.
1 ml was taken off to count cells. The cells were spun again. Media was removed from the cell pellet. 1 mls of prepared media (no GF) was added. The cells were pipetted with a 1000 ul pipette. Cell dilutions (24,000
cells/well) in 250 μL of appropriate media were made. Cells were swirled daily and grown for 2 days.
1. The cells were fixed in the hood. For fixation and subsequent immunohistochemical analysis 100 ul of medium was removed and 100 ul 4% PFA in 1×PBS was added to fix the cells whilst counting the neurospheres by hand, then the cells were washed twice with 1×PBS for 5 min, and left in 1×PBS, wrapped in foil and left overnight at 4° C., or Dapi staining was carried out. 100 uL of PBS was removed and 100 uL
in AB staining solution for five min. Imaging was carried out using a GE Cytell imager or LSM 710, Zeiss confocal microscope and the diameters of neurospheres with ImageJ software (National Institutes of Health) was analysed.

[3] = system: neural progenitor cell (NPCs); assay: Monolayer culture NPC proliferation assay; type: cell-based, mouse; conditions: control 262
Description: Monolayer Culture NPC Proliferation Assay (Incorporation of EdU—S Phase Marker
After 24 h, it was ensured that cells had attached to the plate then the medium was carefully removed. 500 μL of compound media plus GF.was added. The cells were cultured for 3 days in appropriate media.
EDU incorporation was measured using Click-iT® EdU Alexa Fluor® 555 Imaging Kit
At the end of day 3 EdU was added to each well at 10 μM for 30 minutes prior to fixation.
For fixation and subsequent immunohistochemical analysis, the medium was removed, the cells were rinsed once with 1×PBS for 5 min, and fixed with 4% PFA in 1×PBS for 15 min at 4° C., then the cells were washed twice with 1×PBS for 5 min, left in 1×PBS, wrapped in foil and leave overnight at 4° C., or staining was proceeded with.
serum, 1×PBS, and 0.1% triton X) added to cover the bottom, the block was kept at room temp for 1 hour. The cells were stained for EDU. The cells were Incubated for 30 min at room temp, in the dark. The cells were washed with 1×PBS and stained with Dapi 1:5000 ul for 15 min. The cells were washed once with 1×PBS, then left in PBS at 4° C., or Imaged immediately using a GE Cytell imager (cell viability

[4] = high dose sphingomyelin (Dose 3: 1 μm)
[5] = low dose sphingomyelin (Dose 1: 10 nM)
[6] = med dose sphingomyelin (Dose 2: 100 nM)

| Compound | association with myelination (myelin water fraction) over time in the brain [1] | further results |
| --- | --- | --- |
| [Zn] [zinc] | an association with myelination (myelin water fraction) was observed over time in the brain |  |
| iron | an association with myelination (myelin water fraction) was observed over time in the brain |  |
| phosphatidylinositol | an association with myelination (myelin water fraction) was observed over time in the brain |  |
| vitamin B12 | an association with myelination (myelin water fraction) was observed over time in the brain |  |
| CCCCC/C=C\C/C=C\C/C=C\C/C=C\CCCC(=O)O [AA, arachidonic acid] | an association with myelination (myelin water fraction) was observed over time in the brain |  |
| [P] [phosphorus] | an association with myelination (myelin water fraction) was observed over time in the brain |  |
| phosphatidylcholine | an association with myelination (myelin water fraction) was observed over time in the brain |  |
| [Ca+2] [calcium] | an association with myelination (myelin water fraction) was observed over time in the brain |  |
| sphingomyelin | an association with myelination (myelin water fraction) was observed over time in the brain | number of neurospheres, Average (Mean) [2, 4]: 219; number of neurospheres, Average (Mean) [2, 5]: 94; number of neurospheres, Average (Mean) [2, 6]: 121; neuronal proliferation, DAPI [3, 4]: 305; neuronal proliferation, DAPI [3, 5]: 280; neuronal proliferation, DAPI [3, 6]: 314 |
| [Mg+2] [magnesium] | an association with myelination (myelin water fraction) was observed over time in the brain |  |
